Measurements published in a melting point compilation (Tetko et al.; mined from patent text by program, amines drawn as free bases though some values may be those of a salt).

Row | SMILES | melting point
1 | NS(=O)(=O)c1nnc(NC(=O)c2ccccc2O)s1 | > 250 °C
2 | O=C1N(Cc2ccccn2)c2cccc(-c3ccc(Oc4ccccc4)cc3)c2C12COc1cc3c(cc12)OCCO3 (stereo unspecified) | 196 to 199 °C
3 | C#CCn1cc(Br)cnc1=O | 139 to 141 °C
4 | CC(=O)Nc1c(C)nc(N)c(C(=O)NNS(=O)(=O)c2ccccc2)c1C | 216 to 218 °C
5 | COc1cc(-c2cnc3[nH]cc(C(=O)C4(C)CCCC4)c3n2)cc(OC)c1OC | 244 to 246 °C
6 | CC(C)Nc1c(-c2c(F)cc(F)cc2F)c(Cl)nc2nncn12 | 268 to 273 °C
7 | CCNC(=O)/C=C/c1cnoc1-c1ccccc1 | 156 to 157 °C
8 | CSc1cc2c(cn1)c(=O)n1nc(C)cc1n2C | > 300 °C
9 | COC(=O)[C@@H]1C[C@@H](OS(C)(=O)=O)CN1C(=O)C1(C(F)(F)F)CC1 | 123 to 124 °C
10 | COc1cc(Nc2c(C#N)cnc3c2sc2ccccc23)c(Cl)cc1Cl | 234 to 236 °C
11 | CC(=NO)c1ccc2c(c1)C(c1ccccc1F)=NC(C)C(=O)N2C (stereo unspecified) | 101 to 103 °C
12 | CC(=O)NCC(=O)NCC1(S)C2CC3CC(C2)CC1C3 (stereo unspecified) | 154 to 157 °C
13 | N#Cc1ccc2c(c1)ncn2-c1cccc(I)c1 | 177 to 179 °C
14 | CC(=O)C1C2=CCC3C(CCC4(C)C(O)C(O)CC34)C2(C)CCC1O (stereo unspecified) | 152 to 153 °C
15 | O=[N+]([O-])c1cc(F)cc2c1OCCC2 | 48 to 50 °C
16 | Nc1c(OCc2ccccc2)cc(Br)cc1[N+](=O)[O-] | 90 °C
17 | CC(C)NC(=O)c1cc2ncn(C)c2c(Cl)c1NC(=O)c1cc(C(F)(F)F)nn1-c1ncccc1Cl | 150 to 155 °C
18 | O=[N+]([O-])C=C1NCCN1C/C=C\Cl | 117 to 118 °C
19 | Cc1nn(-c2cncc(F)c2)cc1-c1cccc(C(F)(F)F)n1 | 130 to 131 °C
20 | CN(C)C(=S)SC(c1ccc(Cl)cc1Cl)C(C(c1ccc(Cl)cc1Cl)N(C)C)[N+](=O)[O-] (stereo unspecified) | 152 to 154 °C
21 | C#CCOc1cc(-c2nn(C)c(S(C)(=O)=O)c2C)c(F)cc1Cl | 123 to 124 °C
22 | N#CSc1nc(C(F)(F)F)nc2ccccc12 | 134 to 136 °C
23 | CCOC(=O)C1=C(N(C)C)N=C(C)C(C(=O)OCC)C1c1ccccc1C(F)(F)F (stereo unspecified) | 87 °C

Row | SMILES | melting point
24 | CCCc1nn(C)c2c(=O)[nH]cnc12 | 199 to 200 °C
25 | O=[N+]([O-])C(CO)(CO)c1ccccc1 | 96 to 97.5 °C
26 | Cc1nc2c(S(=O)(=O)Cl)cccc2s1 | 100 to 102 °C
27 | BrC=C(c1ccccc1)c1ccccc1 | 45 °C
28 | CC1OC(n2cnc3c(N)nc(N)nc32)C(O)C1O (stereo unspecified) | 135 to 138 °C
29 | COC(=O)NC=Cc1ccc(OCC(O)CNC(C)CC(N)=O)cc1 (stereo unspecified) | 109 to 111 °C
30 | OCc1cc(OC2CCCC2)c(OC(F)F)cn1 | 85 to 86 °C
31 | CSCCc1nc(OCC(F)(F)F)c(C#N)c(N2CCc3ccccc3CC2)n1 | 97 to 100 °C
32 | Fc1ccc(-c2cn([C@H]3CN4CCC3CC4)nn2)cn1 | 147 °C
33 | Cc1cc(I)cc2c(=O)[nH]oc12 | 232 to 233 °C
34 | COc1ccccc1C1(O)C(O)CCC2CNCC21 (stereo unspecified) | 168 °C
35 | S=C(Nc1ccc(Cl)cc1)NC12CC3CC(CC(C3)C1)C2 | 185 °C
36 | CC12C=CC(=O)C=C1C(Br)CC1C2CCC2(C)C(=O)CCC12 (stereo unspecified) | 188 to 190 °C
37 | CCOc1c(CO)cnc2c1cnn2CC | 100 to 102 °C
38 | Clc1cc(CBr)c2noc(-c3ccccc3)c2c1 | 142 to 144 °C
39 | C[C@H]1C(S(=O)(=O)c2ccccc2)C=C(Sc2ccccc2)CC[C@H]1O[Si](C)(C)C (stereo partly specified) | 114 to 116 °C
40 | CCc1c(CC#N)ccc(O)c1O | 101 to 103 °C
41 | Cc1cc(CO)c2c(N)c(C(N)=O)sc2n1 | > 210 °C
42 | NC(=O)OCC1COC(C(F)(F)Cl)(C(F)(F)Cl)O1 (stereo unspecified) | 56 to 57 °C
43 | CCCCCCCCC(=O)Nc1ccn(C2OC(CO)C(O)C2O)c(=O)n1 (stereo unspecified) | 150 to 152 °C
44 | O=C(O)C1=Cc2cc(Cl)cc(Cl)c2OC1C(F)(F)F (stereo unspecified) | 166 to 168 °C
45 | NCCNc1ccc2ccccc2n1 | 124 to 125 °C

The next lines start with the values.

Row | melting point | SMILES
46 | 113 to 114 °C | Cc1sc(-c2ccccc2)nc1COc1ccc(CCC[C@@H]2OC(=O)NC2=O)cc1
47 | 173 to 175 °C | OC(c1c(Br)ccc2c1OCO2)c1cccc2cnccc12 (stereo unspecified)
48 | 114 °C | Fc1ccc(Cn2c(SC3CCNCC3)nc3cncnc32)cc1
49 | 286 to 288 °C | CN(C)CCN1C(=O)N2[C@H](c3cccc(O)c3)c3[nH]c4ccc(Br)cc4c3C[C@@]2(C)C1=O (racemic)
50 | 148 to 149 °C | CCN1c2ncc([N+](=O)[O-])cc2C(=O)N(C)c2cccnc21
51 | 189 to 190 °C | COC(=O)c1c(C)n(-c2ccc(Cl)cc2)c(C)cc1=O
52 | 168 to 171 °C | O=c1c(-c2ccccc2)c(Cn2ccnc2)oc2ccccc12
53 | 100 °C | Cc1cnn(CN(C(=O)CCl)c2c(C)cccc2C)c1
54 | 107 to 108 °C | C[Si](C)(C)c1ccc2c(c1)C(CN1CCCCC1)c1cc([Si](C)(C)C)ccc1-2
55 | 215 to 220 °C | O=C1c2ccccc2C(=O)N1Cc1cc2ccccc2[nH]1
56 | > 300 °C | CN1CCN(c2c(Cl)cc3c(=O)c(C(=O)O)cn(C4CC4)c3c2Cl)CC1
57 | 88 to 90 °C | Cc1ccc(S(=O)(=O)OCC2Cc3cccc(Nc4ccc(C)c(C)c4)c3O2)cc1 (stereo unspecified)
58 | 220 to 221 °C | COc1ccc(COc2ccc(OC)c(Cc3cnc(N)nc3N)c2)cc1
59 | 99 to 100 °C | Cc1c(C)c2c(c(C)c1N)CC(C)(CN1CCN(CCc3ccccc3)CC1)O2 (stereo unspecified)
60 | 146 to 150 °C | CC12CCC3c4ccc(C(=O)O)cc4CCC3C1CCC2C(=O)Cc1ccccc1 (stereo unspecified)
61 | 116 to 118 °C | COc1ccc(-n2cccc2-c2ccc(S(C)(=O)=O)cc2)cc1F
62 | 175 to 176 °C | COc1ccc(C2c3c(C)c(NC(=O)CC(C)(C)C)c(C)c(C)c3OC2(C)C)cc1 (stereo unspecified)
63 | 283 °C | CNS(=O)(=O)c1cc(C(=O)O)cc(N)c1Oc1ccccc1
64 | 208 to 210 °C | NS(=O)(=O)c1ccc(-c2cnn(-c3ccc(F)c(Cl)c3)c(=O)c2-c2ccc(F)cc2)cc1

Row | melting point | SMILES
65 | 181 to 182 °C | CC(C)c1ccc2c(c1)c(S(=O)(=O)c1ccccc1C(C)C)c(CC(C)(C)C(=O)O)n2Cc1ccc(Cl)cc1
66 | 174 to 175 °C | COC(=O)[C@@H](Cc1ccccc1)Oc1c(Br)cc(-c2c3ccccc3c(Br)c3sc(C)c(C)c23)cc1Br
67 | 158 to 160 °C | CN1CC(=O)N(c2ccc3c(c2)CCC3)C1=S
68 | 102 to 103 °C | CCCC[C@H](NC(=O)[C@H](CC(C)C)NC(=O)c1cc2cccc(F)c2o1)C(=O)CSCc1ccco1
69 | 236 to 237 °C | Cc1nc(-c2ccc(Cl)cc2)sc1C(N)=O
70 | 243 to 248 °C | CCOC(=O)c1cn(-c2ccc(F)cc2F)c2nc(O)c(F)cc2c1=O
71 | 194 to 196 °C | COc1ccc(C2CCN(C(=O)Nc3ccc4cc(CN5CCCC5)ccc4c3)CC2)cc1
72 | 178 to 180 °C | CCCCc1nc2cccc(C(=O)O)c2n1Cc1ccc(-c2ccccc2-c2nc(=S)o[nH]2)cc1
73 | 195 °C | NCCNS(=O)(=O)c1cc(NC(=O)c2cnn3c(C(F)(F)F)cc(-c4ccc(C(F)(F)F)cc4)nc23)c(Cl)s1
74 | 178 to 180 °C | N#Cc1ccc(C(=O)N2CCc3c(n(Cc4cccc(C#N)c4)c4ccccc34)C2)cc1
75 | 230 to 232 °C | CC(=O)NC[C@H]1CN(c2ccc(C(=O)c3cnc4ccc(Br)cn34)cc2)C(=O)O1
76 | 156 to 158 °C | c1ccc(Oc2cccc(CSc3nc4cnccc4[nH]3)c2)cc1
77 | 160 to 161 °C | Cn1cc(-c2cccc(Cl)c2)c(=O)c(-c2ccccc2Cl)c1
78 | 147 to 148 °C | O=C(CCc1ccccc1)N[C@H](Cc1ccc(C(F)(F)F)cc1)[C@@H](O)c1ccccc1 (racemic)
79 | 212 to 215 °C | Cc1ccc(CC2CCN(C(=O)CNc3ccc4[nH]c(=O)oc4c3)CC2)cc1
80 | 47 to 48 °C | CC(Oc1ccc(-c2cccc(S(=O)(=O)NCC(F)(F)F)c2)cc1)C(O)CCc1cccnc1 (stereo unspecified)
81 | 92 to 95 °C | O=Cc1c(Cl)nc(-c2ccccc2)n1Cc1ccc(Br)cc1
82 | 105 to 106 °C | CCOC(=O)Cc1ccccc1NC(=O)c1sc2ccc(OC)cc2c1OC(C)C
83 | 117 to 122 °C | Cc1nc(C)c(C(=O)Nc2ccc(-n3nc(C(F)(F)F)cc3C3CC3)cc2)s1

Row | melting point | SMILES
84 | 154 to 155 °C | OCCNc1cc(Nc2ccc(Nc3ccccc3)cc2)ncn1
85 | 145 °C | CCC(C)n1ncn(-c2ccc(N3CCN(c4ccc(OC)cc4)CC3)c(Br)c2)c1=O (stereo unspecified)
86 | 161 to 163 °C | Fc1ccc(C=Nc2c3c(nc4ccccc24)CCCC3)cc1
87 | 105 to 107 °C | CC1CCc2ccc(CC(=O)O)cc2C(=O)C1 (stereo unspecified)
88 | 186 to 188 °C | O=C1c2ccccc2Cc2c1ccc(Cl)c2O
89 | 208 to 210 °C | CCOCCCNc1nc(C)[nH]c2cc(-c3ccccc3)nc1-2
90 | 118 to 119 °C | CCOCc1nc2c(N)nc3cc(CCC(=O)N4CCOCC4)ccc3c2n1CC(C)(C)O
91 | 202 to 204 °C | Cn1cccc1C(=O)Nc1cccc(/C=C/C(=O)O)c1
92 | 127 to 129 °C | Cc1ccc(NC(=O)N2C(=S)C3(CCCCC3)NC23CCCCC3)cc1
93 | 90 to 91.5 °C | CC(C)(C)c1ccc(CN=C2SCN(c3ccccc3)C(=O)N2CC(F)(F)F)cc1
94 | 222 to 223 °C | CC(=S)NC[C@H]1CN(c2ccc(N3CCN(c4nnc(C)s4)CC3)c(F)c2)C(=O)O1
95 | 84 °C | CCCCCCCCOc1ccc(-c2ccc(C3CCC(CCC)C3)cc2)cc1 (stereo unspecified)
96 | 146 to 148 °C | CCOC(=O)c1cn(-c2nc(NCc3ccc(OC)cc3)c(F)cc2F)c2c(F)c(F)c(F)c(NCc3ccccc3)c2c1=O
97 | 98 to 100 °C | CCOC(=O)c1cn(C2CC2)c2c(F)c(C(C#N)C(=O)OCC)c(F)c(F)c2c1=O (stereo unspecified)
98 | 128 to 130 °C | Cc1ccccc1C(=O)Nc1ccc(-n2nc(C3CC3)cc2C2CC2)cc1
99 | 206 to 208 °C | O=C1Cc2ccc3ccccc3c2OC1C(=O)c1cccc(Cl)c1 (stereo unspecified)
100 | 214 °C | C=CCOc1ccc(-c2cc3ccccc3[nH]2)cc1
101 | 88.4 to 90 °C | C=CC(=O)Oc1ccc(-c2cccc(F)c2F)cc1
